This is an account of results in US12398139B2, “Modulators of AMPA receptor signaling” (Centre for Addiction and Mental Health, priority 2019, dated 2025).

Data set [1] has as its system HEK-293 cells expressing GAPDH and GluR2. The experiment in a line: AMPA mediated cell-death assay (CellTox Green Cytotoxicity Assay). The format is cell-based. The following applies: Homo sapiens, HEK293, AMPA 500 μM, CTZ 100 μM, CellTox Green fluorescence, read-out: Potency, inhibition of AMPA-mediated neurotoxicity (IC50, concentration at which 50% of cell death was prevented). Here is the method:
The ability of compounds to inhibit AMPA-mediated neurotoxicity was determined using the CellTox™ Green Cytotoxicity Assay (G8743) kit from Promega. In this assay, GAPDH and GluR2 are expressed in HEK-293 cells. AMPA (500 μM) was added to induce an AMPAR-mediated cell death signalling cascade. This is initiated by the GAPDH-GluR2 complex formation followed by the nuclear translocation of the complex, where it activates the p53-mediated cell death pathway. The presence of a compound which can block dimerization of GAPDH and GluR2 will prevent the nuclear translocation and the cell death and, thus this assay is an effective measure of the ability of a compound to prevent AMPA-mediated neurotoxicity and thus show therapeutic benefit in the treatment of MS.
The assay was performed as per the manufacture's instruction. Briefly, 293 cells stably expressing GluR1 and GluR2VENUS were transfected with pcDNA-RluC-GAPDH. AMPA (500 μM) were added to induce the cell death. CTZ (100 μM) was added to prevent AMPAR desensitization. Candidate molecules were added before the AMPA treatment to test its protective effect. Untreated cells and AMPA treated group were used as negative and positive control respectively. CellTox™ Green Reagent (˜5×) was then added to achieve a final concentration of 1× and cells were incubated at room temperature for 15 minutes (shielded from ambient light). The fluorescence intensity at 485-500 nmEx/520-530 nmEm was then measured and calculated as the percentage value of the positive control. The concentration at which 50% of cell death was prevented (IC50) was determined for each compound.
The potency was measured using the cell death assay described above.

Data set [2] deals with T1, GluR2/GAPDH complex (Homo sapiens, UniProt P42262).
T1 construct: host or cells: HEK293 cells stably transfected with GluR2-VENUS (lysate)
T1 sequence (P42262 25-883, species assumed, one chain of several): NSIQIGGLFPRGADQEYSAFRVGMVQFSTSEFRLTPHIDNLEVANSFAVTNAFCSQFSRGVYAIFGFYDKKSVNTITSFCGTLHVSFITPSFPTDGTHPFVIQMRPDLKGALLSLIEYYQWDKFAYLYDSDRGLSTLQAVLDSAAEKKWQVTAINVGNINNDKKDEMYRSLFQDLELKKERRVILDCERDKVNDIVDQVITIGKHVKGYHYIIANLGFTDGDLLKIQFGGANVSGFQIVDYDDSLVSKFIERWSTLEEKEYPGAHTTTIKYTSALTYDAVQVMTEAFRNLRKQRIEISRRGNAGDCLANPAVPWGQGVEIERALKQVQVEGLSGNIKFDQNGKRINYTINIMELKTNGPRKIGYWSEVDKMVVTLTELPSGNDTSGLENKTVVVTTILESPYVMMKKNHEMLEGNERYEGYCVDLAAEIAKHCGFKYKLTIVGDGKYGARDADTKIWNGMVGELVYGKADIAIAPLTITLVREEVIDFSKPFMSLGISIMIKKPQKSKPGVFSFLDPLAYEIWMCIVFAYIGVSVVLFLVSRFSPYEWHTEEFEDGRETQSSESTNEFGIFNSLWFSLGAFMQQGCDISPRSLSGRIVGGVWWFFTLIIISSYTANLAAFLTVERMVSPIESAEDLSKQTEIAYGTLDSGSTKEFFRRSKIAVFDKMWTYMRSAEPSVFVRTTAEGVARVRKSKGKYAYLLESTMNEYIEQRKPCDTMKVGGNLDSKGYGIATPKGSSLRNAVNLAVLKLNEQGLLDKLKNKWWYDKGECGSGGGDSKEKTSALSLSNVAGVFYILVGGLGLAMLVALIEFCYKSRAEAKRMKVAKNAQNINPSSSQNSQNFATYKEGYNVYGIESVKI
The experiment in a line: Surface plasmon resonance target engagement assay (competitive GluR2-Venus affinity with GAPDH). The following applies: SPR, captured GluR2-VENUS, 100 nM GAPDH peptide, compound top concentration 10 μM; read-out: Potency, GluR2 Binding Affinity (competitive inhibition of GluR2-GAPDH interaction). As to the method: This is one of the most commonly used techniques to study modulation of protein-protein interactions by small molecule ligands, providing real-time measurement of binding affinities and association/dissociation kinetics of complexes (compound/protein) in a label-free environment. The ability of our lead compound to disrupt the interaction of GluR2/GAPDH complex was measured by the binding affinity. Compounds were analyzed for competitive GluR2-Venus protein affinity (with GAPDH recombinant protein) using a Reichert 2SPR system. The surface was first charged with nickel (500 μM NiCl2 in HBS-P buffer for 300 s at a flow rate of 5 μL/min). The dextran surface was then activated with a 1:1 mixture of N-ethyl-N-dimethylaminopropylcarbodiimide (EDC) and N-hydroxysuccinimide (NHS) on line for final concentrations of EDC and NHS of 37.5 mg/mL and 5.8 mg/mL, respectively, for 420 s at a flow rate of 25 μL/min. Anti-VENUS antibody was first immobilized by capture onto a 500 KDa CM Dextran sensor chip (Reichert), proceeded by activation of the carboxymethylated dextran surface for mild amine coupling, followed by a final blocking injection of 1 M ethanolamine, pH 8.5. GluR2-VENUS (lysate of HEK293 cells stably transfected with GluR2-VENUS) was then captured for 900 s at a flow rate of 25 μL/min followed by a final blocking injection of 2% BSA, for 300 s at a flow rate of 5 μL/min.
The surface plasmon resonance affinity assay was carried out in a PBS buffer consisting of 0.05% Tween 20. For affinity measurements, compound solutions were prepared using ten three-fold serial dilutions in running buffer from a 10 μM top concentration (prepared from DMSO stocks) along with a zero (running buffer) control, mixed with 100 nM GAPDH peptide (Sigma Aldrich). A flow rate of 30 μl/min was used with a 420 s contact time (using high performance injection parameters) followed by a 120 s dissociation phase. Results were analyzed by subtracting the signals of the reference surface from the signals for the protein-bound surfaces and performing a solvent correction. Competitive binding responses were normalized throughout the screen to the percentage of inhibition of the respective small molecule compound. Three independent experiments were performed.
The binding affinity was measured using the surface plasmon resonance assay described above.

For data set [3], the system named is EAE mice. The experiment in a line: Experimental autoimmune encephalomyelitis (EAE) model for multiple sclerosis. In kind it is in vivo, mice (C57BL/6).
Data set [4] in a line: Human liver microsomal stability assay. In kind it is in vitro ADME. The following applies: both sexes, pooled human liver microsomes, pH 7.4; human liver microsomes 0.5 mg/mL, 3 μM compound, NADPH, 37° C., 45 min; read-out: T1/2, human liver microsomal stability. Here is the method: (§1) Metabolic stability of 2-pyrrolopyrazoles derivatives was measured by determination of the rate of compound disappearance when incubated in the presence of human or rat liver microsomes. Liver microsomes are prepared from the endoplasmic reticulum of hepatocytes and are the primary source of the most important enzymes (cytochrome P450) involved in drug metabolism. Study of drug stability in the presence of liver microsomes is accepted as a valuable model permitting rapid prediction of in vivo drug stability.
(§2) Human or rat liver microsomes were obtained from a commercial source. Test compounds (3 μM) were incubated with pooled liver microsomes (male and female). Samples were incubated for a 45 minute period and removed at 5 time points and test compounds were analyzed by LC-MS/MS
(§3) Microsomes (final protein concentration 0.5 mg/mL), 0.1 M phosphate buffer pH 7.4, and test compound (final concentration 3 μM; diluted from 10 mM stock solution to give a final DMSO concentration of 0.25%) were incubated at 37° C. prior to the addition of NADPH (final concentration 1 mM) to initiate the reaction. The final incubation volume was 25 μL. A control incubation was included for each compound tested, where 0.1 M phosphate buffer pH 7.4 was added instead of NADPH. The control compounds testosterone and 7-hydroxycoumarin were included in each experiment and all incubations were performed singularly for each compound.
(§4) Each compound was incubated for 0, 5, 15, 30, and 45 minutes. The control (minus NADPH) was incubated for 45 minutes only. The reactions were stopped by the addition of 50 μL methanol containing internal standard at the appropriate time points. The incubation plates were centrifuged at 2500 rpm for 20 minutes at 4° C. to precipitate the protein.
(§5) Following protein precipitation, the sample supernatants were combined in cassettes of up to 4 compounds and analysed using standard LC-MS/MS conditions.
(§6) From a plot of the natural logarithm of the peak area ratio (i.e., the ratio of compound peak area: internal standard peak area) against time, the gradient of the line was determined. Subsequently, half-life and intrinsic clearance were calculated using the equations below: Eliminated rate constant (k)=(−gradient). Half-life (t1/2) (min)=[…]. Intrinsic Clearance (CLint) (μL/min/[…])=(V×0.693)/t1/2. wherein V=Incubation volume (μL/mg microsomal protein).
(§7) Biological half-life values (t1/2) were determined for several 2-pyrrolopyrazoles, as well as the closely-related reference 1-pyrrolopyrazole, using the human liver microsomal stability assay described above.
In general terms: Microsomes from liver hold many membrane-bound enzymes, among them those of drug oxidation.

The nature of data set [5]: Rat liver microsomal stability assay. In kind it is in vitro ADME. The following applies: both sexes, pooled rat liver microsomes, pH 7.4; rat liver microsomes 0.5 mg/mL, 3 μM compound, NADPH, 37° C., 45 min; read-out: T1/2, rat liver microsomal stability. As to the method: as §1, §2, §3, §4, §5, §6, §7

Take `CN(C)C(=O)c1cncc(N2Cc3cn(Cc4ccc(F)cc4)nc3C2)n1` [Compound 155, 6-(2-(4-Fluorobenzyl)-2,6-dihydropyrrolo[3,4-c]pyrazol-5(4H)-yl)-N,N-dimethylpyrazine-2-carboxamide]: the IC50 came to 35 nM in data set [1] and 0.4 nM in data set [2]. Besides, in data set [3] (5 or 10 mg/kg i.p. daily from day 11~12, two-way ANOVA at least P<0.05), the “mean clinical score compared with the no treatment group” value was “significantly lower”. Further, in data set [3] (i.p. administration from day 11~12 after immunization (1~2 days after symptoms)), the neurological function result was “greatly improves neurological function”.
Take `CN(C)C(=O)c1ccnc(N2Cc3cn(Cc4ccc(F)cc4)nc3C2)n1` [Compound 210, 2-(2-(4-Fluorobenzyl)-2,6-dihydropyrrolo[3,4-c]pyrazol-5(4H)-yl)-N,N-dimethylpyrimidine-4-carboxamide]: the half-life at 3 μM in data set [4] is 749 min. The IC50 in data set [1] was determined as 82 nM; in data set [2] it was 33 nM.
Taken in the same sequence, the figures for `O=C(NC1CCCCC1)c1cccc(N2Cc3cn(Cc4ccc(F)cc4)nc3C2)c1` [Compound 216, N-Cyclohexyl-3-(2-(4-fluorobenzyl)-2,6-dihydropyrrolo[3,4-c]pyrazol-5(4H)-yl)benzamide] were more than 1000 min, 57 nM and 91 nM.
Take `CN(C(=O)c1ccnc(N2Cc3cn(Cc4ccc(F)cc4)nc3C2)n1)C1CCCC1` [Compound 226, N-Cyclopentyl-2-(2-(4-fluorobenzyl)-2,6-dihydropyrrolo[3,4-c]pyrazol-5(4H)-yl)-N-methylpyrimidine-4-carboxamide]: the half-life at 3 μM is 7 min in data set [4] and less than 1 min in data set [5]. In addition, in data set [1], the IC50 was determined as 42 nM.
Taken in the same sequence, the figures for `CN(C(=O)c1cncc(N2Cc3cn(Cc4ccc(F)cc4)nc3C2)n1)C1CCCC1` [Compound 228, N-Cyclopentyl-6-(2-(4-fluorobenzyl)-2,6-dihydropyrrolo[3,4-c]pyrazol-5(4H)-yl)-N-methylpyrazine-2-carboxamide] were 8 min, less than 1 min and 42 nM.
With `CN(C(=O)c1ccnc(N2Cc3cn(Cc4ccc(F)cc4)nc3C2)n1)C1CCCCC1` [Compound 230, N-Cyclohexyl-2-(2-(4-fluorobenzyl)-2,6-dihydropyrrolo[3,4-c]pyrazol-5(4H)-yl)-N-methylpyrimidine-4-carboxamide], the IC50 in data set [1] is 87 nM. In addition, the half-life at 3 μM in data set [5] is less than 1 min.
For the molecule `O=C(c1cccc(N2Cc3cn(Cc4ccc(F)cc4)nc3C2)c1)N1CCCCC1` [Compound 242, (3-(2-(4-Fluorobenzyl)-2,6-dihydropyrrolo[3,4-c]pyrazol-5(4H)-yl)phenyl)(piperidin-1-yl)methanone], the IC50 turned out to be 79 nM in data set [1] and 8 nM in data set [2]. In addition, the half-life at 3 μM in data set [5] turned out to be 14 min.
`N#Cc1cncc(N2Cc3cn(Cc4ccc(F)cc4)nc3C2)n1` [Compound 245, 6-(2-(4-Fluorobenzyl)-2,6-dihydropyrrolo[3,4-c]pyrazol-5(4H)-yl)pyrazine-2-carbonitrile]: the figures for the IC50 in data set [1] and in data set [2] were 771 nM and 206 nM, respectively.
Take `CN(C)C(=O)c1ccc(N2Cc3cn(Cc4ccc(F)cc4)nc3C2)cc1` [Compound 246, 4-(2-(4-Fluorobenzyl)-2,6-dihydropyrrolo[3,4-c]pyrazol-5(4H)-yl)-N,N-dimethylbenzamide]: the IC50 stood at 8.6 nM in data set [1] and 440 nM in data set [2].
On to `CN(C)C(=O)c1cccc(N2Cc3cn(CC4CC4)nc3C2)c1` [Compound 247, 3-(2-(Cyclopropylmethyl)-2,6-dihydropyrrolo[3,4-c]pyrazol-5(4H)-yl)-N,N-dimethylbenzamide], for which the IC50 in data set [1] was found to be 36 nM; in data set [2], 148 nM.
On the same counts, the results for `CN(C)C(=O)c1cncc(N2Cc3cnn(Cc4ccc(F)cc4)c3C2)n1` [REF, reference compound] are 200 nM and more than 1000 nM.
